Data published in article PMC6099558, “N-oxide alkaloids from Crinum amabile (Amaryllidaceae)” (Molecules : A Journal of Synthetic Chemistry and Natural …, 2018).
Values after ≈ are worked out from the molar mass of the structure shown. Like-named read-outs stand apart in the source and are kept apart here.

Assays:
AChE = AChE (Electrophorus electricus, UniProt O42275); assay: Acetylcholinesterase inhibitory activity (Ellman method, modified); type: biochemical
Protocol: (§1) Cholinesterase inhibitory activities were analyzed as by Ellman and co-workers with some modifications as by López and co-workers. Fifty microliters of AChE or BuChE phosphate buffer (8m M K2HPO4, 2.3 mM NaH2PO4, 0.15 M NaCl, pH 7.5) and 50 μL of the sample dissolved in the same buffer were added to the wells. The plates were incubated for 30 min at room temperature before 100 μL of the substrate solution (0.1 M Na2HPO4, […], and 0.6 mM acetylthiocholine iodide, ATCI, or 0.24 mM butyrylthiocholine iodide, BTCI, in Millipore water, pH 7.5) was added. The absorbance was read in a Labsystem microplate reader (Helsinki, Finland) at 405 nm after 10 min. […] In a first step, samples were assessed at 10, 100 and 200 µg mL^−1 towards both enzymes. […] Enzyme activity was calculated as a percentage compared to an assay using a buffer without any inhibitor. The cholinesterase inhibitory data were analyzed with the software Microsoft Office Excel 2010.

BuChE = BuChE (Equus caballus, UniProt P81908); assay: Butyrylcholinesterase inhibitory activity (Ellman method, modified); type: biochemical
Protocol: as §1

[1] = tested on: Trypanosoma brucei rhodesiense (trypomastigotes forms, STIB 900 strain); assay: In vitro antiprotozoal activity against T. brucei rhodesiense; type: cell-based; conditions: read-out: T. brucei rhodesiense IC50
Protocol: (§2) In vitro tests for the biological activity of the alkaloids isolated from C. amabile against Trypanosoma brucei rhodesiense (trypomastigotes forms, STIB 900 strain), Trypanosoma cruzi (axenic grown amastigotes forms, Tulahuen C4 strain), Leishmania donovani (amastigotes forms, MHOM-ET-67/L82 strain), and Plasmodium falciparum (intraerythrocytic forms, IEF, NF54 strain) and a cytotoxicity test against the mammalian L6 cell line from rat skeletal myoblasts were carried out at the Swiss Tropical and Public Health Institute (Swiss TPH, Basel, Switzerland) according to established protocols as described by Orhan and co-workers. The reference drugs used in these assays were melarsoprol, benznidazole, miltefosine, chloroquine and podophyllotoxin, respectively.

[2] = tested on: Trypanosoma cruzi (axenic grown amastigotes forms, Tulahuen C4 strain); assay: In vitro antiprotozoal activity against T. cruzi; type: cell-based; conditions: read-out: T. cruzi IC50
Protocol: as §2

[3] = tested on: Leishmania donovani (amastigotes forms, MHOM-ET-67/L82 strain); assay: In vitro antiprotozoal activity against L. donovani; type: cell-based; conditions: read-out: L. donovani IC50
Protocol: as §2

[4] = tested on: Plasmodium falciparum (intraerythrocytic forms, IEF, NF54 strain); assay: In vitro antiprotozoal activity against P. falciparum NF54; type: cell-based
Protocol: as §2

[5] = Cytotoxicity test against mammalian L6 cell line; type: cell-based; conditions: L6 cells (rat skeletal myoblasts)
Protocol: as §2

[6] = tested on: chloroquine-sensitive strain of Plasmodium falciparum; parameters: method as in PMID 8229016; conditions: read-out: IC50 against chloroquine-sensitive strain of Plasmodium falciparum; cited from earlier work
[7] = tested on: chloroquine-resistant strain of Plasmodium falciparum; conditions: read-out: IC50 against chloroquine-resistant strain of Plasmodium falciparum; cited from earlier work
[8] = trypomastigotes forms, STIB 900 strain
[9] = amastigotes forms, Tulahuen C4 strain
[10] = amastigotes forms, MHOM-ET-67/L82 strain
[11] = intraerythrocytic forms, NF54 strain, read-out: P. falciparum IC50

Chain of AChE (O42275 24-633): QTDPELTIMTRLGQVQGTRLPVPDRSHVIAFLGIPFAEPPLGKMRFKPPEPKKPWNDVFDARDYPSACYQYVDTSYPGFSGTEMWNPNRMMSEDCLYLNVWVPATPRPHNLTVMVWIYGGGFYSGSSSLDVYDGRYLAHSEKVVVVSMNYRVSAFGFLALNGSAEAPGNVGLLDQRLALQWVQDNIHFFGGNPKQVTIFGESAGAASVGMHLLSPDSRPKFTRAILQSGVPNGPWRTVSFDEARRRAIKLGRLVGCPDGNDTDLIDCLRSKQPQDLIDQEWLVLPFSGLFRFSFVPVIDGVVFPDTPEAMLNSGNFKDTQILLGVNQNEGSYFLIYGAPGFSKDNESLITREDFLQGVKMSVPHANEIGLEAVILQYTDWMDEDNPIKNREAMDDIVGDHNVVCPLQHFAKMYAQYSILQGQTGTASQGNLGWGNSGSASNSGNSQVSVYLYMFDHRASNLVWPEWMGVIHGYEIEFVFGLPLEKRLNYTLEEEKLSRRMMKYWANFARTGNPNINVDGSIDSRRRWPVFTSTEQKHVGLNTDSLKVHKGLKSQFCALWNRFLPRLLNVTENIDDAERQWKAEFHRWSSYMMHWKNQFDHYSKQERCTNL
Chain of BuChE (P81908 whole entry): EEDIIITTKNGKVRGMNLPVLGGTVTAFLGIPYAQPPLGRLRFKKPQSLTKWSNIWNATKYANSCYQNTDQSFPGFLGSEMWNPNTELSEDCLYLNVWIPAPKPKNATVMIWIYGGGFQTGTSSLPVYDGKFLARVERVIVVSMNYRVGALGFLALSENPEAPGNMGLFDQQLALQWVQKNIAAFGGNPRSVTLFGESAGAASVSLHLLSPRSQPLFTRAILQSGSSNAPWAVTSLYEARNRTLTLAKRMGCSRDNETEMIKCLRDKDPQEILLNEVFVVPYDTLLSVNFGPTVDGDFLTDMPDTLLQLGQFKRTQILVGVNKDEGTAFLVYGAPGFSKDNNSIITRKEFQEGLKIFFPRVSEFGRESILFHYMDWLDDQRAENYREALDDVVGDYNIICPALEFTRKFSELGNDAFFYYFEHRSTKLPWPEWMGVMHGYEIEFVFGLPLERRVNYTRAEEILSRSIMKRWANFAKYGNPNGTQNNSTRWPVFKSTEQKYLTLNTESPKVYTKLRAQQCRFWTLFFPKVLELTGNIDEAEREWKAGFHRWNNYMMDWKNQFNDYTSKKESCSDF

SMILES | IC50 [1, 8] | IC50 [2, 9] | IC50 [3, 10] | IC50 [4, 11] | IC50 [5] | further results
CN1CCC23c4cc5c(cc4C4OC(CCC12)C3O4)OCO5 (centres unmarked) [Augustamine (22), Augustamine] | 19.2 ± 2.97 µg/mL (≈ 63.7 µM) | 54 ± 4.53 µg/mL (≈ 179 µM) | > 100 µg/mL | 20.4 ± 0.21 µg/mL (≈ 67.5 µM) | 81.55 ± 0.64 µg/mL (≈ 271 µM) | AChE inhibitory activity (in words) (AChE): did not show any cholinesterase inhibitory activities; BuChE inhibitory activity (in words) (BuChE): did not show any cholinesterase inhibitory activities
COc1cc([C@@H]2c3cc4c(cc3[C@H](O)[C@H]3COC(=O)[C@H]23)OCO4)cc(OC)c1OC [podophyllotoxin, reference compound] | – | – | – | – | 0.004 ± 0.0007 µg/mL (≈ 0.00965 µM) | –
CO[C@@H]1C[C@@H]2[C@@]3(CC[N@@+]2([O-])Cc2cc4c(cc23)OCO4)[C@H]2O[C@@H]12 [Augustine N-oxide (1), Augustine N-oxide] | 58.9 ± 11.5 µg/mL (≈ 185 µM) | 66.2 ± 11.8 µg/mL (≈ 209 µM) | > 100 µg/mL | 36.6 ± 4.74 µg/mL (≈ 115 µM) | > 100 µg/mL | –
O[C@H]1C=C[C@@]23CCN(Cc4cc5c(cc42)OCO5)[C@@H]3C1 [Crinine (10), Crinine] | 18.9 ± 0.78 µg/mL (≈ 69.8 µM) | 57.5 ± 6.86 µg/mL (≈ 212 µM) | > 100 µg/mL | 30.9 ± 2.19 µg/mL (≈ 114 µM) | > 100 µg/mL | –
CO[C@H]1C=C[C@@]23CC[N@@+]([O-])(Cc4cc5c(cc42)OCO5)[C@@H]3C1 [Buphanisine N-oxide (2), Buphanisine N-oxide] | 55.2 ± 4.31 µg/mL (≈ 183 µM) | 64 ± 1.34 µg/mL (≈ 213 µM) | > 100 µg/mL | 32.55 ± 0.07 µg/mL (≈ 108 µM) | > 100 µg/mL | –
Nc1nc(N)nc(Nc2ccc([As]3SCC(CO)S3)cc2)n1 (centres unmarked) [melarsoprol, reference compound] | – | – | – | – | – | IC50 [1]: 0.003 ± 0.001 µg/mL
O=C(Cn1ccnc1[N+](=O)[O-])NCc1ccccc1 [benznidazole, reference compound] | – | – | – | – | – | IC50 ([2]; TULAHUEN): 0.865 ± 0.08 µg/mL (≈ 3.32 µM)
CO[C@@H]1C[C@H]2N3CC[C@@]2(c2cc4c(cc2C3)OCO4)[C@H]2O[C@@H]12 [Augustine (13), Augustine] | 15.1 ± 1.06 µg/mL (≈ 49.9 µM) | 56 ± 0.71 µg/mL (≈ 186 µM) | > 100 µg/mL | 14.2 ± 0.14 µg/mL (≈ 47.1 µM) | > 100 µg/mL | AChE inhibitory activity (in words) (AChE): moderate; IC50 [6]: 460 nM; IC50 [7]: 600 nM
CCCCCCCCCCCCCCCCOP(=O)([O-])OCC[N+](C)(C)C [miltefosine, reference compound] | – | – | – | – | – | IC50 [3]: 0.515 ± 0.06 µg/mL (≈ 1.26 µM)
CO[C@H]1C=C[C@@]23CCN(Cc4cc5c(cc42)OCO5)[C@@H]3C1 [Buphanisine (8), Buphanisine] | 16.5 ± 0.57 µg/mL (≈ 57.8 µM) | 55.5 ± 4.6 µg/mL (≈ 195 µM) | > 100 µg/mL | 4.28 ± 0.18 µg/mL (≈ 15 µM) | 72.8 ± 5.02 µg/mL (≈ 255 µM) | AChE inhibitory activity (in words) (AChE): low
CCN(CC)CCCC(C)Nc1ccnc2cc(Cl)ccc12 (centres unmarked) [chloroquine, reference compound] | – | – | – | – | – | IC50 ([4]; NF54, read-out: P. falciparum IC50): 0.004 ± 0.0007 µg/mL (≈ 0.0125 µM)
